Data taken from PMC10387993, “New pyrimidine-N-β-D-glucosides: synthesis, biological evaluation, and molecular docking investigations” (Turkish Journal of Chemistry, 2023).
≈ marks a conversion by molar mass, not a printed value. Where two headings read alike, the source gives them in different places. One block for each compound: values may come before it.

Key:
Assay type in all cases: cell-based
[1] = LDH cytotoxic activity assay, HT29; conditions: human, HT29 cells; for cytotoxicity at 24 h, 25 μg/mL: HT29, 25 μg/mL; for cytotoxicity at 24 h, 50 μg/mL: HT29, 50 μg/mL; for cytotoxicity at 24 h, 75 μg/mL: HT29, 75 μg/mL; for cytotoxicity at 24 h, 100 μg/mL: HT29, 100 μg/mL
Summary of the method: (§1)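 Harvest ~80%-confluent cells with trypsin-EDTA, seed ~5 × 10^3 per well in DMEM or RPMI 1640 containing 10% FBS, then add compound at 25–100 μg/mL (four levels) for 24 h at 37 °C. Finish by reading LDH activity at 492–630 nm.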

in vitro = conditions: human, LC50
Summary of the method: (§2)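 In this MTT proliferation screen, formazan formed over 4 h was read at 560 nm against a 690 nm reference. Each line was tested at least three times, and the IC50 was taken as the concentration inhibiting half of the cells.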

normal FL cells = assay: cells; conditions: FL normal cells, MTT; for IC50: read-out: IC50; for IC (total growth inhibition): read-out: TGI
Summary of the method: as §2

HeLa = assay: cells; conditions: Homo sapiens; for GI50 / IC50 / IC (total growth inhibition): MTT; for IC50: read-out: IC50; for IC (total growth inhibition): read-out: TGI; for LC50 (concentration causing 50% net cell loss): read-out: LC50
Summary of the method: as §2

HT29 = assay: cells; conditions: Homo sapiens; for LC50 (concentration giving 50% net cell loss relative to time zero): HT-29, read-out: LC50; for GI50 / IC50 / IC (total growth inhibition): HT-29, HT29, MTT; for IC50: read-out: IC50; for IC (total growth inhibition): read-out: TGI
Summary of the method: as §2

Hep3B = assay: cells; conditions: Homo sapiens; for GI50 / IC50 / IC (total growth inhibition): MTT; for IC50: read-out: IC50; for IC (total growth inhibition): read-out: TGI; for LC50 (concentration causing 50% net cell loss relative to time zero): read-out: LC50
Summary of the method: as §2

C6 (Rat brain glioma) = assay: cells; conditions: Rattus norvegicus; for LC50 (concentration giving 50% net cell loss relative to time zero): read-out: LC50; for GI50 / IC50 / IC (total growth inhibition): C6, MTT; for IC50: read-out: IC50; for IC (total growth inhibition): read-out: TGI
Summary of the method: as §2

A549 = assay: cells; conditions: Homo sapiens; for LC50 (concentration causing 50% net cell loss): A549, read-out: LC50; for GI50 / IC50 / IC (total growth inhibition): A549, MTT; for IC50: read-out: IC50; for IC (total growth inhibition): read-out: TGI
Summary of the method: as §2

MCF7 = assay: cells; conditions: Homo sapiens; for LC50 (concentration causing 50% net cell loss relative to time zero): MCF7, read-out: LC50; for GI50 / IC50 / IC (total growth inhibition): MCF7, MTT; for IC50: read-out: IC50; for IC (total growth inhibition): read-out: TGI
Summary of the method: as §2

[2] = system: S. aureus MRSA ATCC 46300; assay: Microdilution MIC assay; conditions: Staphylococcus aureus; S. aureus MRSA ATCC 46300, 24 h at 35 °C; read-out: MIC
Summary of the method: (§3)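 Microwell dilution; 24 h, 35 °C; visual read; MIC = lowest conc. without turbidity.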

[3] = system: S. aureus MSSA ATCC 29213; assay: Microdilution MIC assay; conditions: S. aureus MSSA ATCC 29213, 24 h at 35 °C
Summary of the method: as §3

[4] = system: P. aeruginosa AGME ATCC 27853; assay: Microdilution MIC assay; conditions: Pseudomonas aeruginosa, ATCC27853; P. aeruginosa AGME ATCC 27853, 24 h at 35 °C
Summary of the method: as §3

E. coli ATCC 25922 = assay: Microdilution MIC assay; conditions: Escherichia coli, ATCC25922; E. coli ATCC 25922, 24 h at 35 °C
Summary of the method: as §3

E. coli ESBL ATCC 35218 = assay: Microdilution MIC assay; conditions: Escherichia coli, ATCC35218; E. coli ESBL ATCC 35218, 24 h at 35 °C
Summary of the method: as §3

S. mutans ATCC 35668 = assay: Microdilution MIC assay; conditions: Streptococcus mutans, ATCC35668, 24 h, S. mutans ATCC 35668, 24 h at 35 °C; read-out: MIC
Summary of the method: as §3

[5] = LDH cytotoxic activity assay, C6; conditions: rat, C6 glioma cells; for cytotoxicity at 24 h, 25 μg/mL: C6, 25 μg/mL; for cytotoxicity at 24 h, 50 μg/mL: C6, 50 μg/mL; for cytotoxicity at 24 h, 75 μg/mL: C6, 75 μg/mL; for cytotoxicity at 24 h, 100 μg/mL: C6, 100 μg/mL
Summary of the method: as §1

[6] = LDH cytotoxic activity assay, HeLa; conditions: human, HeLa cells
Summary of the method: as §1

[7] = Staphylococcus aureus, 24 h, read-out: MIC

- GI50 (HeLa): > 500 µg/mL
- IC50 (HeLa): > 500 µg/mL
- GI50 (HT29): 4.3 µg/mL (≈ 10.1 µM)
- IC50 (HT29): > 500 µg/mL
- GI50 (Hep3B): 4.61 µg/mL (≈ 10.9 µM)
- IC50 (Hep3B): > 500 µg/mL
- GI50 (C6 (Rat brain glioma)): > 500 µg/mL
- IC50 (C6 (Rat brain glioma)): > 500 µg/mL
- GI50 (A549): > 500 µg/mL
- IC50 (A549): > 500 µg/mL
- GI50 (MCF7): 1.89 µg/mL (≈ 4.45 µM)
- IC50 (MCF7): > 500 µg/mL
- MIC [2]: 1000 µg/mL (≈ 2360 µM)
- MIC [3]: 125 µg/mL (≈ 294 µM)
- MIC [3, 7]: 62.5 to 125 µg/mL (≈ 147 to 294 µM)
- MIC [4]: > 1000 µg/mL
- MIC (E. coli ATCC 25922): > 1000 µg/mL
- MIC (E. coli ESBL ATCC 35218): > 1000 µg/mL
- MIC (S. mutans ATCC 35668): 250 µg/mL (≈ 589 µM)
Structure (SMILES): Cc1ccc(-c2cc(-c3ccncc3)nc(N[C@@H]3O[C@H](CO)[C@@H](O)[C@H](O)[C@H]3O)n2)cc1 [Compound 9, N-[4-(4-methylphenyl)-6-pyridin-4-ylpyrimidin-2-yl]-β-D-glucopyranosylamine]
- cytotoxicity at 24 h, 25 μg/mL [1]: 25.7%
- cytotoxicity at 24 h, 50 μg/mL [1]: 40.9%
- cytotoxicity at 24 h, 75 μg/mL [1]: 74.7%
- cytotoxicity at 24 h, 100 μg/mL [1]: 81.8%
- LC50 (concentration causing 50% net cell loss) (in vitro): > 500 µg/mL
- GI50 (normal FL cells): 7.04 µg/mL (≈ 16.6 µM)
- IC50 (normal FL cells): > 500 µg/mL
- IC (total growth inhibition) (normal FL cells): > 500 µg/mL
- IC (total growth inhibition) (HeLa): > 500 µg/mL
- LC50 (concentration causing 50% net cell loss) (HeLa): > 500 µg/mL
- LC50 (concentration giving 50% net cell loss relative to time zero) (HT29): > 500 µg/mL
- IC (total growth inhibition) (HT29): > 500 µg/mL
- IC (total growth inhibition) (Hep3B): > 500 µg/mL
- LC50 (concentration causing 50% net cell loss relative to time zero) (Hep3B): > 500 µg/mL
- LC50 (concentration giving 50% net cell loss relative to time zero) (C6 (Rat brain glioma)): > 500 µg/mL
- IC (total growth inhibition) (C6 (Rat brain glioma)): > 500 µg/mL
- LC50 (concentration causing 50% net cell loss) (A549): > 500 µg/mL
- IC (total growth inhibition) (A549): > 500 µg/mL
- LC50 (concentration causing 50% net cell loss relative to time zero) (MCF7): > 500 µg/mL
- IC (total growth inhibition) (MCF7): > 500 µg/mL
- cytotoxicity at 24 h, 25 μg/mL [5]: 28.4%
- cytotoxicity at 24 h, 50 μg/mL [5]: 34.1%
- cytotoxicity at 24 h, 75 μg/mL [5]: 70.2%
- cytotoxicity at 24 h, 100 μg/mL [5]: 90.6%
- cytotoxicity at 24 h, 25 μg/mL [6]: 10%
- cytotoxicity at 24 h, 50 μg/mL [6]: 34.3%
- cytotoxicity at 24 h, 75 μg/mL [6]: 49.6%
- cytotoxicity at 24 h, 100 μg/mL [6]: 55.9%

- GI50 (HeLa): > 500 µg/mL
- IC50 (HeLa): > 500 µg/mL
- GI50 (HT29): 2.1 µg/mL (≈ 3.54 µM)
- IC50 (HT29): 71.1 µg/mL (≈ 120 µM)
- GI50 (Hep3B): 7.53 µg/mL (≈ 12.7 µM)
- IC50 (Hep3B): > 500 µg/mL
- GI50 (C6 (Rat brain glioma)): 2.21 µg/mL (≈ 3.73 µM)
- IC50 (C6 (Rat brain glioma)): 21.9 µg/mL (≈ 36.9 µM)
- GI50 (A549): > 500 µg/mL
- IC50 (A549): > 500 µg/mL
- GI50 (MCF7): 1.66 µg/mL (≈ 2.8 µM)
- IC50 (MCF7): > 500 µg/mL
- MIC [2]: 1000 µg/mL (≈ 1690 µM)
- MIC [3, 7]: > 1000 µg/mL
- MIC [4]: > 1000 µg/mL
- MIC (E. coli ATCC 25922): > 1000 µg/mL
- MIC (E. coli ESBL ATCC 35218): > 1000 µg/mL
- MIC (S. mutans ATCC 35668): 500 µg/mL (≈ 844 µM)
Structure (SMILES): CC(=O)OC[C@H]1O[C@@H](Nc2nc(-c3ccccn3)cc(-c3ccccc3C)n2)[C@H](OC(C)=O)[C@@H](OC(C)=O)[C@@H]1OC(C)=O [Compound 10, 2,3,4,6-tetra-O-acetyl-N-[4-(2-methylphenyl)-6-pyridin-2-ylpyrimidin-2-yl]-β-D-glucopyranosylamine]
- cytotoxicity at 24 h, 25 μg/mL [1]: 29.4%
- cytotoxicity at 24 h, 50 μg/mL [1]: 51.8%
- cytotoxicity at 24 h, 75 μg/mL [1]: 64.5%
- cytotoxicity at 24 h, 100 μg/mL [1]: 95.2%
- LC50 (concentration causing 50% net cell loss) (in vitro): > 500 µg/mL
- GI50 (normal FL cells): 22.8 µg/mL (≈ 38.4 µM)
- IC50 (normal FL cells): > 500 µg/mL
- IC (total growth inhibition) (normal FL cells): > 500 µg/mL
- IC (total growth inhibition) (HeLa): > 500 µg/mL
- LC50 (concentration causing 50% net cell loss) (HeLa): > 500 µg/mL
- LC50 (concentration giving 50% net cell loss relative to time zero) (HT29): > 500 µg/mL
- IC (total growth inhibition) (HT29): > 500 µg/mL
- IC (total growth inhibition) (Hep3B): > 500 µg/mL
- LC50 (concentration causing 50% net cell loss relative to time zero) (Hep3B): > 500 µg/mL
- LC50 (concentration giving 50% net cell loss relative to time zero) (C6 (Rat brain glioma)): 486 µg/mL (≈ 820 µM)
- IC (total growth inhibition) (C6 (Rat brain glioma)): 9.19 µg/mL
- LC50 (concentration causing 50% net cell loss) (A549): > 500 µg/mL
- IC (total growth inhibition) (A549): > 500 µg/mL
- LC50 (concentration causing 50% net cell loss relative to time zero) (MCF7): > 500 µg/mL
- IC (total growth inhibition) (MCF7): > 500 µg/mL
- cytotoxicity at 24 h, 25 μg/mL [5]: 22.8%
- cytotoxicity at 24 h, 50 μg/mL [5]: 54.3%
- cytotoxicity at 24 h, 75 μg/mL [5]: 77.1%
- cytotoxicity at 24 h, 100 μg/mL [5]: 93.5%
- cytotoxicity at 24 h, 25 μg/mL [6]: 16.8%
- cytotoxicity at 24 h, 50 μg/mL [6]: 40.7%
- cytotoxicity at 24 h, 75 μg/mL [6]: 51.7%
- cytotoxicity at 24 h, 100 μg/mL [6]: 58.4%
